This is an account of results in patent US20080171783A1, “COMPOSITIONS AND METHODS FOR TREATING HYPERPROLIFERATIVE DISEASE” (Migenix Inc., priority 2006, published 2008).

One experiment deals with UACC-257. Briefly: NCI In Vitro Cell Line Screening (SRB). The format is cell-based, human. The conditions noted are these: UACC-257, Melanoma, 48 h.
In a further experiment the test system is Jurkat. The experiment can be described thus: Cell viability by XTT. The method, then:
(§1) Compounds were solubilized at […] in DMSO and were stored at −20° C. Test compounds were initially tested at a single concentration of 10 μM and a subset of test compounds were further tested in selected cell lines using a six concentration dose response curve.
(§2) Cell Preparation Cancer cell lines were passaged in T-75 flasks prior to use in the assay in cell culture medium recommended by the ATCC (American Type Culture Collection; Table 6). On the day preceding the assay, the cells were split 1:2 to assure they were in an exponential growth phase at the time of compound treatment. Total cell and viability quantification was performed using a hemocytometer and Trypan Blue dye exclusion. […] The cells were resuspended at the appropriate cell per mL (Table 6) in tissue culture medium and added to the microtitre plates in a volume of 100 μL. Colon cell lines were incubated overnight at 37° C./5% CO2 to allow for cell adherence to the plates.
(§3) Plate Format: Each plate contains cell control wells (cells only), drug calorimetric control wells (drug only) as well as experimental wells (drug plus cells). Samples were tested in triplicate at a concentration of 10 μM and five half-logarithmic dilutions.
(§4) Cell Viability by XTT: Following incubation at 37° C. in a 5% CO2 incubator for four days, the test plates were stained with the tetrazolium dye XTT (2,3-bis(2-methoxy-4-nitro-5-sulfophenyl)-5-[(phenylamino)carbonyl]-2H-tetrazolium hydroxide). XTT-tetrazolium was metabolized by the mitochondrial enzymes of metabolically active cells to a soluble formazan product. XTT solution was prepared daily as a stock of 1 mg/mL in RPMI1640. Phenazine methosulfate (PMS) solution was prepared at 0.15 mg/mL in phosphate buffered saline (PBS) and stored in the dark at −20° C. XTT/PMS stock was prepared immediately before use by adding 40 μL of PMS per mL of XTT solution. Fifty (50) microlitres of XTT/PMS was added to each well of the plate and the plate was reincubated for 4 hours at 37° C. Plates were sealed with adhesive plate sealers and shaken gently or inverted several times to mix the soluble formazan product and the plate was read spectrophotometrically at 450/650 nm with a Molecular Devices Vmax plate reader. […] An Average Response Factor (ARF) was calculated for each compound by averaging the ten Percentage of Control values for the cell lines. […] Deviations below 100% control indicate activity. The concentration of each tested compound is 10 μM.
(In general: Tetrazolium dyes change colour on reduction, which living cells bring about.)

The test system of another experiment is Caco-2. The experiment can be described thus: Cell viability by XTT. The method, then:
as §1, §2, §3, §4

The subject of another experiment is THP-1. Briefly: Cell viability by XTT. The method, then: as §1, §2, §3, §4
The next experiment concerns HT29. The experiment can be described thus: cells. The method, then: as §1, §2, §3, §4
The subject of another experiment is HCT-15. The experiment can be described thus: Cell viability by XTT. The format is cell-based. The conditions noted are these: HCT-15, single dose 10 μM, four days. The method, then:
as §1, §2, §3, §4

For another experiment, the system named is HL-60. The experiment can be described thus: Cell viability by XTT. It counts as cell-based. The conditions noted are these: HL-60, single dose 10 μM, four days. The method, then: as §1, §2, §3, §4
A further experiment concerns the target T1, human polymerase alpha (Homo sapiens, UniProt P09884).
T1 construct: purchased Replizyme Ltd (Heslington, York, UK)
T1 sequence (P09884 1-1462): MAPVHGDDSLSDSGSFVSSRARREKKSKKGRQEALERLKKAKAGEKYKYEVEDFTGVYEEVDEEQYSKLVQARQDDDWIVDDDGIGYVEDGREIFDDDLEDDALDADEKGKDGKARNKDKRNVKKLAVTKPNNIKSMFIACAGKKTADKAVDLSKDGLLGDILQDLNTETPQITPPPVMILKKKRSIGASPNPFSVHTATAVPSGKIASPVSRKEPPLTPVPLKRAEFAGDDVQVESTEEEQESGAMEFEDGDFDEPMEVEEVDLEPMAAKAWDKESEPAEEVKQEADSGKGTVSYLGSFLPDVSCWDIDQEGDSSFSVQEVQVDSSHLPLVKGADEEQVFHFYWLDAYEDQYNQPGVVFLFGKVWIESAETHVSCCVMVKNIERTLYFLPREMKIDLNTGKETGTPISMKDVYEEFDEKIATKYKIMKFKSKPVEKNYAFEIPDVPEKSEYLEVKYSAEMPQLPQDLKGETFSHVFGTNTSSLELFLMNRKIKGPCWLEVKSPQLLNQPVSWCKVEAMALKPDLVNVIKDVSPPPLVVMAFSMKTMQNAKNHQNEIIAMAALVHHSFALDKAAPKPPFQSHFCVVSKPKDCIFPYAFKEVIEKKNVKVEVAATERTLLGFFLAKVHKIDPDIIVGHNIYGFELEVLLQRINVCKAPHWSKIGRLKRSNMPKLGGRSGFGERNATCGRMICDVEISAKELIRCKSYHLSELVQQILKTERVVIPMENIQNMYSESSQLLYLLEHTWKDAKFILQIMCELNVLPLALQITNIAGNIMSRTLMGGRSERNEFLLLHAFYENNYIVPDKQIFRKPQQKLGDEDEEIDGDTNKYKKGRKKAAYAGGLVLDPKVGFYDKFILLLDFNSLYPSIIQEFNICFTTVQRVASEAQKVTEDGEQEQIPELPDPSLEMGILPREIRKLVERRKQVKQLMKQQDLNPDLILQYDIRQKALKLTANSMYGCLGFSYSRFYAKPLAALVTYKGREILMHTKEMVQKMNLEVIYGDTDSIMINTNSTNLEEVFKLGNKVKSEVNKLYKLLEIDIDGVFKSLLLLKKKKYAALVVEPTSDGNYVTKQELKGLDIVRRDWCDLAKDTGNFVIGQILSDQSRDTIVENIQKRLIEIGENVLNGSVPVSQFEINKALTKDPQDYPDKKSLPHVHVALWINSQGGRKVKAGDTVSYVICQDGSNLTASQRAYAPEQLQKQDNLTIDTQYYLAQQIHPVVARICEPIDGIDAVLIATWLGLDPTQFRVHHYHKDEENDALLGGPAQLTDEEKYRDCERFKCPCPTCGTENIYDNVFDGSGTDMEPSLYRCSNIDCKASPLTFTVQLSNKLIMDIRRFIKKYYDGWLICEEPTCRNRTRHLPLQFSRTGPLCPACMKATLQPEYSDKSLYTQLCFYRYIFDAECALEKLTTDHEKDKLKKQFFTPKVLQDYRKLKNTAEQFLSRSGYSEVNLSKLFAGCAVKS
The experiment can be described thus: Human polymerase alpha inhibition (Replizyme kit). It counts as biochemical. The conditions noted are these: dose response. The method, then:
Calf polymerase alpha and human polymerase alpha investigations were performed with a kit available from Replizyme Ltd (Heslington, York, UK).

For orientation: GI50 means the concentration giving 50% growth inhibition. Lower therefore signals greater sensitivity of the cells. As usually defined, the TGI is the concentration at which net growth stops. For orientation: IC50 means the concentration that inhibits the measured activity by half. Lower therefore signals greater potency.

In turn, `CC(C)(C)c1ccc(NC(=O)[C@H](CCCCN)NC(=O)OCC2c3ccccc3-c3ccccc32)cc1` [Compound 105, (S)-[5-AMINO-1-(4-TERT-BUTYL-PHENYLCARBAMOYL)-PENTYL]-CARBAMIC ACID 9H-FLUOREN-9-YLMETHYL ESTER] showed a GI50 with UACC-257 (Homo sapiens) of 1.75 µM. For the same molecule, in the experiment with UACC-257, the TGI is 3.70 µM. The CC50 with Jurkat (Homo sapiens, read-out: Activity (TC50)) is 2.5 µM; in the experiment with Caco-2 (Homo sapiens, Caco-2, read-out: Activity (TC50)), 8.6 µM; with THP-1 (Homo sapiens, THP-1, read-out: Activity (TC50)), 6.7 µM; in the experiment with HT29 (Homo sapiens, HT-29, read-out: Activity (TC50)), 8.5 µM. The “Percentage of Cell Control” value is 23.5% with Jurkat (single dose 10 μM, four days); 0% in the experiment with Caco-2 (Caco-2, single dose 10 μM, four days); 0% with THP-1 (THP-1, single dose 10 μM, four days); 13.8% with HT29 (HT29, single dose 10 μM, four days); 85.6% in the experiment on HCT-15; 19.6% in the experiment on HL-60.
As to `Cc1cc2cc(NC(=O)[C@H](CCCNC(=O)CN)NC(=O)Nc3ccc4c(c3)Cc3ccccc3-4)ccc2[nH]1` [Compound 297, (S)-5-(2-AMINO-ACETYLAMINO)-2-[3-(9H-FLUOREN-2-YL)-UREIDO]-PENTANOIC ACID (2-METHYL-1H-INDOL-5-YL)-AMIDE], at human polymerase alpha, 10 µM corresponded to half-maximal inhibition (IC50).
